Converted amounts (≈) assume the structure as drawn.
Legend:
Rattus norvegicus [1] = experiment: Anticancer activity against Walker 256 carcinoma cells in rat after administration of 10 mg/kg; Activity expressed as survivors out of 4 rats (Active); format: functional
Rattus norvegicus [2] = experiment: Anticancer activity against Walker 256 carcinoma in rat after administration of 10 mg/kg; Activity expressed as % T/C (Active); format: functional
Aspergillus fumigatus = experiment: Antifungal activity against Aspergillus fumigatus; format: functional
[3] = Antifungal activity against Trichophyton mentagrophytes; format: functional, Trichophyton mentagraphytes; settings: Trichophyton benhamiae
Microsporum canis = experiment: Antifungal activity against Microsporum canis; format: functional
Candida albicans = experiment: Antifungal activity against Candida albicans; format: functional
Cryptococcus neoformans [4] = experiment: Antifungal activity against Cryptococcus neoformans; format: functional
Tolypocladium inflatum = experiment: Antifungal activity against Sporotrichum schenckii; format: functional; settings: sporotrichum scenckii
Sporothrix schenckii = experiment: Antifungal activity against Sporotrichum schenckii
Cryptococcus neoformans [5] = experiment: Antifungal activity against C. neoformans; No activity; format: functional

Row | Compound | Survivors (Rattus norvegicus [1]) | T/C (Rattus norvegicus [2]) [%] | MIC (Aspergillus fumigatus) [µg/mL] | MIC [3] [µg/mL] | MIC (Microsporum canis) [µg/mL] | MIC (Candida albicans) [µg/mL] | MIC (Cryptococcus neoformans [4]) [µg/mL] | MIC (Tolypocladium inflatum) [µg/mL] | MIC (Sporothrix schenckii) [µg/mL] | MIC (Cryptococcus neoformans [5]) [µg/mL]
1 | CC1=CC(=O)c2c(O)ccc(O)c2C1=O | 4 | 23 |  |  |  |  |  |  |  | 
2 | O=C1C=C(Sc2ccccc2)C(=O)c2ccccc21 |  |  | 25 (≈ 93.9 µM) | < 0.78 | < 0.98 | 12.5 (≈ 46.9 µM) | 1.56 (≈ 5.86 µM) |  |  | 
3 | NYSTATIN |  |  |  |  |  | 7.9 | 3.9 | 13.2 |  | 
4 | O=C1c2ccccc2C(=O)c2c1sc1nccn21 |  |  | 25 (≈ 98.3 µM) | 25 (≈ 98.3 µM) | 25 (≈ 98.3 µM) | 50 (≈ 197 µM) | 12.5 (≈ 49.2 µM) |  | 25 (≈ 98.3 µM) | 
5 | O=C1C(CO)=C(Sc2ccccc2)C(=O)c2ccccc21 |  |  | < 0.78 | 1.56 (≈ 5.26 µM) | 1.56 (≈ 5.26 µM) | 25 (≈ 84.4 µM) | 1.56 (≈ 5.26 µM) |  |  | 
6 | O=C1c2sc3nccn3c2C(=O)c2c(O)ccc(O)c21 |  |  |  | 25 (≈ 87.3 µM) | 25 (≈ 87.3 µM) | 25 (≈ 87.3 µM) | < 12.5 |  | < 12.5 | 
7 | O=C1C=CC(=O)c2c(O)ccc(O)c21 [NAPHTHAZALIN] | 3 µg/mL | 37 |  |  |  |  |  |  |  | 
8 | C[C@@H]1[C@H](O)[C@@H](C)/C=C/C=C/C=C/C=C/C=C/C=C/C=C/[C@H](O[C@@H]2O[C@H](C)[C@@H](O)[C@H](N)[C@@H]2O)C[C@@H]2O[C@](O)(C[C@@H](O)C[C@@H](O)[C@H](O)CC[C@@H](O)C[C@@H](O)CC(=O)O[C@H]1C)C[C@H](O)[C@H]2C(=O)O [AMPHOTERICIN B] |  |  |  | 1.56 (≈ 1.69 µM) | 1.56 (≈ 1.69 µM) | 0.39 (≈ 0.422 µM) | 0.78 (≈ 0.844 µM) |  |  | 
9 | Clc1ccc(COC(Cn2ccnc2)c2ccc(Cl)cc2Cl)c(Cl)c1 (stereo unspecified) [MICONAZOLE] |  |  | 12.5 (≈ 30 µM) | ≤ 0.78 | ≤ 0.78 | 25 (≈ 60.1 µM) | 12.5 (≈ 30 µM) |  |  | 
10 | O=C(O)CCSC1=CC(=O)c2c(O)ccc(O)c2C1=O |  |  |  | 3.12 (≈ 10.6 µM) | 3.12 (≈ 10.6 µM) | 3.12 (≈ 10.6 µM) |  |  |  | 1.56 (≈ 5.3 µM)
11 | O=C1c2sc3nccn3c2C(=O)c2c(Cl)ccc(O)c21 |  |  | 3.1 (≈ 10.2 µM) | 6.25 (≈ 20.5 µM) | 6.25 (≈ 20.5 µM) | 25 (≈ 82 µM) | 6.25 (≈ 20.5 µM) |  |  | 

Reference: ChEMBL document CHEMBL1147579, “Design, synthesis and evaluation of novel 1,4-naphthoquinone derivatives as antifungal and anticancer agents” (2004)
